Tests used:
[1] = Human plasma stability
Description: 100 μL aliquots were removed at the time points of 0, 0.25, 0.5, 1, 2, 4, 6 hours and diluted with 400 μL cold acetonitrile containing tolbutamide (200 ng/mL) as internal standard. The samples were centrifuged at 14,000 rpm for 4 minutes. 100 μL of above supernatants were diluted with 300 μL of 0.1% formic acid HPLC water and 10 μL was taken for LC/MS/MS analysis (column: C-18; mobile phase: 0.1% formic acid in water/0.1% formic acid in acetonitrile; ion transition: Q1 ion (m/z)=840.5, Q2 ion (m/z)=462.2).

[2] = tested on: HCT116; experiment: cells; assay type: cell-based, human; conditions: 72 hours, n = 3, mean
Description: (§1) Monolayer cultures of human carcinoma cells were harvested using trypsin-EDTA, and the cells counted and resuspended to 1×10^5/mL in RPMI-1640 or DMEM containing 10% FBS. Cells (0.1 mL/well) were added to each well of 96 well microtiter plates and incubated overnight at 37° C. in a humidified atmosphere of 5% CO2. […] All dilutions were performed in triplicate. The drug treated cells were incubated for another 72 hours at 37° C. in a humidified atmosphere of 5% CO2. 50 μL of cold TCA (50%, wt/vol) was added to each well and incubated the plates at 4° C. for 1 hour. The plates were washed with slow-running tap water for three times and the dried at room temperature. 50 μL of Sulforhodamine B solution (0.4%, wt/vol) was added to each well and the plates were left at room temperature for 1 hour. The plates were rinsed with acetic acid solution (1%, vol/vol) to remove the unbound dye and dried at room temperature. 200 μL of 10 mM Tris base solution was added to each well and the plates were shaken on a gyratory shaker for 15 minutes to solubilize the protein-bound dye. Well optical density at 510 nm was measured in a microplate reader, and the IC50 was calculated by GraphPad from three separated experiments with triplicate in each experiment and expressed as mean (Table 1).

[3] = tested on: HepG2; experiment: cells; assay type: cell-based, human; conditions: 72 hours, n = 3, mean
Description: as §1

[4] = tested on: CT-26 syngenic colon cancer model; experiment: In vivo antitumor activity, subcutaneous CT-26 syngenic colon cancer model; parameters: species or system Balb/c mice; conditions: QW, intravenous, three injections
Description: The tumoricidal effect of peptide-drug conjugate N^α-succinamic acid-Ala-Ala-Asn-PABC-mitomycin [8] was evaluated on subcutaneous CT-26 syngenic colon cancer model in Balb/c mice. Each mouse was inoculated subcutaneously at the right flank region with CT-26 tumor cells (5×10^5) in 0.1 mL of PBS.

[5] = tested on: Balb/c mice; experiment: In vivo maximum tolerated dose (MTD) in Balb/c mice; parameters: mortality: dose or concentration left out as unconfirmed
[6] = 25, 50 and 100 mg/kg, once per week, three injections total for 24 days

CO[C@@]12[C@H](COC(N)=O)C3=C(C(=O)C(C)=C(N)C3=O)N1C[C@H]1[C@@H]2N1C(=O)OCc1ccc(NC(=O)[C@H](CC(N)=O)NC(=O)[C@H](C)NC(=O)[C@H](C)NC(=O)CCC(=O)O)cc1 [compound 8, N^α-succinamic acid-Ala-Ala-Asn-PABC-mitomycin]
free drug mitomycin detected ([1]; human plasma incubation, 10 μM, 37° C.): Less than 2% | half-life at 10 μM ([1]; human, plasma): > 15 h | IC50 [2]: 6650 nM | IC50 [3]: 2480 nM | tumor growth T/C versus untreated control ([4]; 50 mg/kg, p<0.01): 36.4% | appearance [5, 6]: no abnormal appearance | body weight (loss) [5, 6]: < 10% | increase of mice maximum tolerated dose (MTD) as compared with parent drug mitomycin ([5]; Balb/c mice): at least 20 fold

CO[C@@]12[C@H](COC(N)=O)C3=C(C(=O)C(C)=C(N)C3=O)N1C[C@@H]1N[C@@H]12 [mitomycin, reference compound]
IC50 ([2]; Homo sapiens, HCT-116): 116 nM | IC50 ([3]; Homo sapiens, HepG2): 143 nM | tumor growth T/C ([4]; 5 mg/kg (MTD dose)): 50.4% | mortality [5]: animal death was observed

Source: patent US9579317B2, “Peptide-drug conjugates” (JiaRui Biopharmaceuticals, Ltd., priority 2014, dated 2017)
